Assay results from US20240239842A1 (CHUGAI SEIYAKU KABUSHIKI KAISHA, priority 2021, published 2024).
Starred links: 1 amine or outer side, 2 acyl side, 3 side chain; linkers in the order of their positions; H or OH if unused. Positions of bridges follow the written chain, without caps; N, C: chain ends. Non-standard residues stand in square brackets, D forms with d. Residues, ends and D or L forms follow the SMILES beside them. *: point of attachment. hPhe(3-Cl-4-CF3) = N[C@@H](CCc1ccc(C(F)(F)F)c(Cl)c1)C(=O)O; X1 = CN([C@@H](CC1CCC(F)(F)CC1)C(=O)[*:2])[*:1]; NMePhe(4-Me) = CN[C@@H](Cc1ccc(C)cc1)C(=O)O; X4 = C#Cc1cccc(C[C@H](N[*:1])C(=O)[*:2])c1; X5 = O=C([C@H](Cc1cccc(F)c1F)N[*:1])[*:2]; Phe(3-I) = N[C@@H](Cc1cccc(I)c1)C(=O)O; X2 = CC(C)=CC[C@H](N[*:1])C(=O)[*:2]; NMeY = CN[C@@H](Cc1ccc(O)cc1)C(=O)O; NMeCha = CN[C@@H](CC1CCCCC1)C(=O)O; X6 = O=C(CN(CCN1CCNCC1)[*:1])[*:2]; X3 = C[C@H](CN(C)[*:1])C(=O)[*:2]; NMeChg = CN[C@H](C(=O)O)C1CCCCC1; NMeF = CN[C@@H](Cc1ccccc1)C(=O)O; Gly(cBu) = N[C@H](C(=O)O)C1CCC1; NMeD = CN[C@@H](CC(=O)O)C(=O)O; NMeL = CN[C@@H](CC(C)C)C(=O)O; NMehSer = CN[C@@H](CCO)C(=O)O; NMeV = CN[C@H](C(=O)O)C(C)C; d(β3hA) = C[C@@H](N)CC(=O)O; NMeS = CN[C@@H](CO)C(=O)O; Pip = O=C(O)[C@@H]1CCCCN1; NMeA = CN[C@@H](C)C(=O)O; NMeAib = CNC(C)(C)C(=O)O; Nle = CCCC[C@H](N)C(=O)O; Piperidide = C1CCN(*)CC1; Ac5c = NC1(C(=O)O)CCCC1; Aze = O=C(O)[C@@H]1CCN1; Sar = CNCC(=O)O

How the values were obtained:
[1] = target: wild type KRAS(WT) (Homo sapiens, UniProt P01116); assay: Surface plasmon resonance (SPR) binding to wild type KRAS; settings: SPR Biacore 8K+, Single Cycle Kinetics, 30° C., 10 μM GDP, 1:1 binding model; read-out: Dissociation Constant KD (nM) for Wild Type KRAS
[2] = target: mutant KRAS (G12D) (Homo sapiens, UniProt P01116, G12D); assay: Surface plasmon resonance (SPR) binding to mutant KRAS (G12D); settings: SPR Biacore 8K+, Single Cycle Kinetics, 30° C., 10 μM GDP, 1:1 binding model; read-out: Dissociation Constant KD (nM) for Mutant KRAS (G12D)

| Kd [1] | Kd [2] | SMILES |
| --- | --- | --- |
| 44 nM | 4.4 nM | CC(C)=CC[C@@H]1NC(=O)[C@H](Cc2cccc(I)c2)NC(=O)CN(C)C(=O)[C@H](CC2CCC(F)(F)CC2)N(C)C(=O)[C@@H]2CCN2C(=O)[C@@H]2CCCCN2C(=O)[C@H](C2CCC2)NC(=O)[C@H](CC(C)C)N(C)C(=O)C[C@@H](C(=O)N2CCCCC2)N(C)C(=O)[C@H](CC(C)C)NC(=O)[C@H](Cc2ccccc2)N(C)C1=O [Compound 2, (1S,6S,9S,15S,18S,21S,24S,27S,31S,34S)-21-benzyl-34-cyclobutyl-9-[(4,4-difluorocyclohexyl)methyl]-15-[(3-iodophenyl)methyl]-24,31-diisobutyl-8,11,20,26,30-pentamethyl-18-(3-methylbut-2-enyl)-27-(piperidine-1-carbonyl)-3,8,11,14,17,20,23,26,30,33,36-undecazatricyclo[34.4.0.03,6]tetracontane-2,7,10,13,16,19,22,25,29,32,35-undecanone] ([NMeL][Gly(cBu)][Pip][Aze][X1][Sar][Phe(3-I)][X2][NMeF]L[NMeD]-Piperidide; lactam N-11) |
| 43 nM | 2.9 nM | CCCC[C@@H]1NC(=O)[C@H](Cc2cccc(I)c2)NC(=O)CN(C)C(=O)[C@H](Cc2ccc(C)cc2)N(C)C(=O)CN(C)C(=O)CN(C)C(=O)[C@H]([C@@H](C)CC)NC(=O)[C@H](CCOC)N(C)C(=O)C[C@@H](C(=O)N2CCCCC2)N(C)C(=O)[C@H](CC(C)C)NC(=O)[C@H](COC)N(C)C1=O [Compound 3, (3S,6S,9S,12S,18S,27S,30S,34S)-9-butyl-12-[(3-iodophenyl)methyl]-3-isobutyl-30-(2-methoxyethyl)-6-(methoxymethyl)-1,7,16,19,22,25,31-heptamethyl-27-[(1S)-1-methylpropyl]-34-(piperidine-1-carbonyl)-18-(p-tolylmethyl)-1,4,7,10,13,16,19,22,25,28,31-undecazacyclotetratriacontane-2,5,8,11,14,17,20,23,26,29,32-undecanone] ([NMehSer](Me)I[Sar][Sar][NMePhe(4-Me)][Sar][Phe(3-I)][Nle][NMeS](Me)L[NMeD]-Piperidide; lactam N-11) |
| 23 nM | 1.5 nM | C#Cc1cccc(C[C@@H]2NC(=O)CN(C)C(=O)[C@H](CC3CCCCC3)N(C)C(=O)CN(C)C(=O)CN(C)C(=O)[C@H]([C@@H](C)CC)NC(=O)[C@H](C)CN(C)C(=O)C[C@@H](C(=O)N3CCCCC3)N(C)C(=O)[C@H](CC(C)C)NC(=O)C(C)(C)N(C)C(=O)[C@H](Cc3ccc(OC)cc3)NC2=O)c1 [Compound 4, (3S,9S,12S,18S,27S,30R,35S)-18-(cyclohexylmethyl)-12-[(3-ethynylphenyl)methyl]-3-isobutyl-9-[(4-methoxyphenyl)methyl]-1,6,6,7,16,19,22,25,30,32-decamethyl-27-[(1S)-1-methylpropyl]-35-(piperidine-1-carbonyl)-1,4,7,10,13,16,19,22,25,28,32-undecazacyclopentatriacontane-2,5,8,11,14,17,20,23,26,29,33-undecaone] ([X3]I[Sar][Sar][NMeCha][Sar][X4]Y(Me)[NMeAib]L[NMeD]-Piperidide; lactam N-11) |
| 19 nM | 3.6 nM | CCCC[C@@H]1NC(=O)[C@H](Cc2cccc(F)c2F)NC(=O)CN(C)C(=O)[C@H](Cc2ccc(OC)cc2)N(C)C(=O)[C@@H]2CCN2C(=O)[C@@H]2CCCCN2C(=O)[C@H](C2CCC2)NC(=O)[C@H](CC(C)C)N(C)C(=O)C[C@@H](C(=O)N2CCCCC2)N(C)C(=O)[C@H](CC(C)C)NC(=O)C(C)(C)N(C)C1=O [Compound 5, (1S,6S,9S,15S,18S,24S,27S,31S,34S)-18-butyl-34-cyclobutyl-15-[(2,3-difluorophenyl)methyl]-24,31-diisobutyl-9-[(4-methoxyphenyl)methyl]-8,11,20,21,21,26,30-heptamethyl-27-(piperidine-1-carbonyl)-3,8,11,14,17,20,23,26,30,33,36-undecazatricyclo[34.4.0.03,6]tetracontane-2,7,10,13,16,19,22,25,29,32,35-undecaone] ([NMeL][Gly(cBu)][Pip][Aze][NMeY](Me)[Sar][X5][Nle][NMeAib]L[NMeD]-Piperidide; lactam N-11) |
| 16 nM | 21 nM | CC[C@H](C)[C@@H]1NC(=O)[C@H](CC(C)C)N(C)C(=O)C[C@@H](C)NC(=O)[C@H](C(C)C)N(C)C(=O)C2(CCCC2)NC(=O)[C@@H]2CCCN2C(=O)[C@H](CCc2ccc(C(F)(F)F)c(Cl)c2)NC(=O)CN(C)C(=O)[C@H](CC2CCCCC2)N(C)C(=O)[C@@H]2CCN2C(=O)[C@H](C)N(C)C1=O [Compound 6, (3S,9S,12S,17S,20S,23S,27R,30S,36S)-3-[2-[3-chloro-4-(trifluoromethyl)phenyl]ethyl]-9-(cyclohexylmethyl)-23-isobutyl-30-isopropyl-7,10,17,18,24,27,31-heptamethyl-20-[(1S)-1-methylpropyl]spiro[1,4,7,10,15,18,21,24,28,31,34-undecazatricyclo[34.3.0.012,15]nonatriacontane-33,1′-cyclopentane]-2,5,8,11,16,19,22,25,29,32,35-undecaone] (cyclo([Ac5c][NMeV][d(β3hA)][NMeL]I[NMeA][Aze][NMeCha][Sar][hPhe(3-Cl-4-CF3)]P)) |
| 0.94 nM | 0.18 nM | CC[C@H](C)[C@@H]1NC(=O)[C@H](CC(C)C)N(C)C(=O)C[C@@H](C(=O)N2CCCCC2)N(C)C(=O)[C@H](C2CCCCC2)N(C)C(=O)C2(CCCC2)NC(=O)CN(CCN2CCNCC2)C(=O)[C@H](CCc2ccc(C(F)(F)F)c(Cl)c2)NC(=O)CN(C)C(=O)[C@H](CC2CCCCC2)N(C)C(=O)CN(C)C(=O)CN(C)C1=O [Compound 7, (11S,17S,26S,29S,33S,36S)-11-[2-[3-chloro-4-(trifluoromethyl)phenyl]ethyl]-36-cyclohexyl-17-(cyclohexylmethyl)-29-isobutyl-15,18,21,24,30,34,37-heptamethyl-26-[(1 S)-1-methylpropyl]-9-(2-piperazine-1-ylethyl)-33-(piperidine-1-carbonyl)-6,9,12,15,18,21,24,27,30,34,37-undecazaspiro[4.33]octatriacontane-7,10,13,16,19,22,25,28,31,35,38-undecaone, reference compound] ([NMeL]I[Sar][Sar][NMeCha][Sar][hPhe(3-Cl-4-CF3)][X6][Ac5c][NMeChg][NMeD]-Piperidide; lactam N-11) |
